# Assay results from patent US10058094B2, “Antimicrobial sanitizer compositions and methods of making the same” (priority 2013, dated 2018).
# What was measured:
# [1] = tested on: Salmonella typhi ATCC 6539; test: Chlorine equivalence test; format: cell-based; set-up: key to growth of organism, Subculture Series 8 / growth of organism, Subculture Series 9 / growth of organism, Subculture Series 10 / growth of organism, Subculture Series 1 / growth of organism, Subculture Series 2 / growth of organism, Subculture Series 3 / growth of organism, Subculture Series 4 / growth of organism, Subculture Series 5 / growth of organism, Subculture Series 6 / growth of organism, Subculture Series 7: growth of organism (+); no growth of organism (0); conditions: for growth of organism, Subculture Series 1 / growth of organism, Subculture Series 2 / growth of organism, Subculture Series 3 / growth of organism, Subculture Series 4 / growth of organism, Subculture Series 5 / growth of organism, Subculture Series 6 / growth of organism, Subculture Series 7 / growth of organism, Subculture Series 8 / growth of organism, Subculture Series 9 / growth of organism, Subculture Series 10: Salmonella typhi
# Method: (§1) The Table 1 sanitizer was tested to determine its efficiency at reducing bacteria on the skin via a chlorine equivalence test. Samples were prepared of Staphylococcus aureus ATCC 6538 (7.6×10^8 colony forming units per mL of text mixture) and Salmonella typhi ATCC 6539 (1.2×10^8 colony forming units per mL of text mixture). The samples were then treated against a NaOCl control at 200 ppm, 100 ppm, and 50 ppm, as well as the sanitizer disclosed herein. Thereafter, ten subculture series were taken.
# [2] = tested on: Staphylococcus aureus ATCC 6538; test: Chlorine equivalence test; format: cell-based; set-up: key to growth of organism, Subculture Series 8 / growth of organism, Subculture Series 9 / growth of organism, Subculture Series 10 / growth of organism, Subculture Series 1 / growth of organism, Subculture Series 2 / growth of organism, Subculture Series 3 / growth of organism, Subculture Series 4 / growth of organism, Subculture Series 5 / growth of organism, Subculture Series 6 / growth of organism, Subculture Series 7: growth of organism (+); no growth of organism (0); conditions: for growth of organism, Subculture Series 1 / growth of organism, Subculture Series 2 / growth of organism, Subculture Series 3 / growth of organism, Subculture Series 4 / growth of organism, Subculture Series 5 / growth of organism, Subculture Series 6 / growth of organism, Subculture Series 7 / growth of organism, Subculture Series 8 / growth of organism, Subculture Series 9 / growth of organism, Subculture Series 10: Staphylococcus aureus
# Method: as §1
structure (smiles),measurement,setting,value
[Na+].[O-]Cl [NaOCl],growth of organisms over the ten subculture series,"[1]; Salmonella typhi ATCC 6539, NaOCl control at 200 ppm, 100 ppm, and 50 ppm, ten subculture series",eventually showed growth of organisms
same,"growth of organism, Subculture Series 1",[1]; concentration 50 ppm,0
same,"growth of organism, Subculture Series 2",[1]; concentration 50 ppm,0
same,"growth of organism, Subculture Series 3",[1]; concentration 50 ppm,+
same,"growth of organism, Subculture Series 4",[1]; concentration 50 ppm,+
same,"growth of organism, Subculture Series 5",[1]; concentration 50 ppm,+
same,"growth of organism, Subculture Series 6",[1]; concentration 50 ppm,+
same,"growth of organism, Subculture Series 7",[1]; concentration 50 ppm,+
same,"growth of organism, Subculture Series 8",[1]; concentration 50 ppm,+
same,"growth of organism, Subculture Series 9",[1]; concentration 50 ppm,+
same,"growth of organism, Subculture Series 10",[1]; concentration 50 ppm,+
same,"growth of organism, Subculture Series 1",[1]; concentration 100 ppm,0
same,"growth of organism, Subculture Series 2",[1]; concentration 100 ppm,0
same,"growth of organism, Subculture Series 3",[1]; concentration 100 ppm,0
same,"growth of organism, Subculture Series 4",[1]; concentration 100 ppm,+
same,"growth of organism, Subculture Series 5",[1]; concentration 100 ppm,+
same,"growth of organism, Subculture Series 6",[1]; concentration 100 ppm,+
same,"growth of organism, Subculture Series 7",[1]; concentration 100 ppm,+
same,"growth of organism, Subculture Series 8",[1]; concentration 100 ppm,+
same,"growth of organism, Subculture Series 9",[1]; concentration 100 ppm,+
same,"growth of organism, Subculture Series 10",[1]; concentration 100 ppm,+
same,"growth of organism, Subculture Series 1",[1]; concentration 200 ppm,0
same,"growth of organism, Subculture Series 2",[1]; concentration 200 ppm,0
same,"growth of organism, Subculture Series 3",[1]; concentration 200 ppm,0
same,"growth of organism, Subculture Series 4",[1]; concentration 200 ppm,0
same,"growth of organism, Subculture Series 5",[1]; concentration 200 ppm,0
same,"growth of organism, Subculture Series 6",[1]; concentration 200 ppm,0
same,"growth of organism, Subculture Series 7",[1]; concentration 200 ppm,+
same,"growth of organism, Subculture Series 8",[1]; concentration 200 ppm,+
same,"growth of organism, Subculture Series 9",[1]; concentration 200 ppm,+
same,"growth of organism, Subculture Series 10",[1]; concentration 200 ppm,+
same,growth of organisms over the ten subculture series,"[2]; Staphylococcus aureus ATCC 6538, NaOCl control at 200 ppm, 100 ppm, and 50 ppm, ten subculture series",eventually showed growth of organisms
same,"growth of organism, Subculture Series 1",[2]; concentration 50 ppm,0
same,"growth of organism, Subculture Series 2",[2]; concentration 50 ppm,+
same,"growth of organism, Subculture Series 3",[2]; concentration 50 ppm,+
same,"growth of organism, Subculture Series 4",[2]; concentration 50 ppm,+
same,"growth of organism, Subculture Series 5",[2]; concentration 50 ppm,+
same,"growth of organism, Subculture Series 6",[2]; concentration 50 ppm,+
same,"growth of organism, Subculture Series 7",[2]; concentration 50 ppm,+
same,"growth of organism, Subculture Series 8",[2]; concentration 50 ppm,+
same,"growth of organism, Subculture Series 9",[2]; concentration 50 ppm,+
same,"growth of organism, Subculture Series 10",[2]; concentration 50 ppm,+
same,"growth of organism, Subculture Series 1",[2]; concentration 100 ppm,0
same,"growth of organism, Subculture Series 2",[2]; concentration 100 ppm,0
same,"growth of organism, Subculture Series 3",[2]; concentration 100 ppm,+
same,"growth of organism, Subculture Series 4",[2]; concentration 100 ppm,+
same,"growth of organism, Subculture Series 5",[2]; concentration 100 ppm,+
same,"growth of organism, Subculture Series 6",[2]; concentration 100 ppm,+
same,"growth of organism, Subculture Series 7",[2]; concentration 100 ppm,+
same,"growth of organism, Subculture Series 8",[2]; concentration 100 ppm,+
same,"growth of organism, Subculture Series 9",[2]; concentration 100 ppm,+
same,"growth of organism, Subculture Series 10",[2]; concentration 100 ppm,+
same,"growth of organism, Subculture Series 1",[2]; concentration 200 pm,0
same,"growth of organism, Subculture Series 3",[2]; concentration 200 pm,0
same,"growth of organism, Subculture Series 8",[2]; concentration 200 pm,+
same,"growth of organism, Subculture Series 10",[2]; concentration 200 pm,+
same,"growth of organism, Subculture Series 2",[2]; concentration 200 ppm,0
same,"growth of organism, Subculture Series 4",[2]; concentration 200 ppm,0
same,"growth of organism, Subculture Series 5",[2]; concentration 200 ppm,0
same,"growth of organism, Subculture Series 6",[2]; concentration 200 ppm,+
same,"growth of organism, Subculture Series 7",[2]; concentration 200 ppm,+
same,"growth of organism, Subculture Series 9",[2]; concentration 200 ppm,+
